Experimental data reported in PubChem BioAssay AID248 (DTP/NCI, 2004).
Where “and” joins values, the source holds several entries; their conditions need not be identical. Equal entries are not always repeated. Toxic doses and inconclusive results are not listed. Cut-off read from the data, not from the text of the source: active = T/C of 150% or more; inactive = T/C below 125%.

System: L1210 leukemia ip in BDF1 mice, survival T/C
Assay: NCI In Vivo Anticancer Drug Screen. Data for tumor model L1210 Leukemia (intraperitoneal) in B6D2F1 (BDF1) mice
Conditions: endpoint: mean survival time, higher = longer survival
How it was run: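 Antitumor effect is assessed in tumor-bearing animals. Survival in the compound arm is compared with a vehicle-dosed control arm and expressed as their quotient.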

[1] = dose: 75.0 mg/kg/injection, schedule: Q01DX001 (ip), vehicle: other
[2] = dose: 100.0 mg/kg/injection, schedule: Q01DX001 (ip), vehicle: saline with Tween-80
[3] = dose: 100.0 mg/kg/injection, schedule: Q04DX002 (ip), vehicle: Klucel (hydroxypropylcellulose) (HPC)
[4] = dose: 200.0 mg/kg/injection, schedule: Q04DX002 (ip), vehicle: Klucel (hydroxypropylcellulose) (HPC)
[5] = dose: 100.0 mg/kg/injection, schedule: Q01DX009 (ip), vehicle: saline with Tween-80
[6] = dose: 200.0 mg/kg/injection, schedule: Q01DX009 (ip), vehicle: saline with Tween-80
[7] = dose: 400.0 mg/kg/injection, schedule: Q01DX009 (ip), vehicle: saline with Tween-80
[8] = dose: 100.0 mg/kg/injection, schedule: Q04DX003 (ip), vehicle: Klucel (hydroxypropylcellulose) (HPC)
[9] = dose: 200.0 mg/kg/injection, schedule: Q04DX003 (ip), vehicle: Klucel (hydroxypropylcellulose) (HPC)
[10] = dose: 400.0 mg/kg/injection, schedule: Q04DX003 (ip), vehicle: Klucel (hydroxypropylcellulose) (HPC)
[11] = dose: 100.0 mg/kg/injection, schedule: Q04DX003 (ip), vehicle: saline
[12] = dose: 200.0 mg/kg/injection, schedule: Q04DX003 (ip), vehicle: saline
[13] = dose: 100.0 mg/kg/injection, schedule: Q04DX003 (ip), vehicle: saline with Tween-80
[14] = dose: 200.0 mg/kg/injection, schedule: Q04DX003 (ip), vehicle: saline with Tween-80
[15] = dose: 400.0 mg/kg/injection, schedule: Q04DX003 (ip), vehicle: saline with Tween-80
[16] = dose: 10.0 mg/kg/injection, schedule: Q01DX001 (ip), vehicle: saline
[17] = dose: 40.0 mg/kg/injection, schedule: Q01DX001 (ip), vehicle: saline
[18] = dose: 75.0 mg/kg/injection, schedule: Q01DX001 (ip), vehicle: saline
[19] = dose: 150.0 mg/kg/injection, schedule: Q01DX001 (ip), vehicle: saline
[20] = dose: 50.0 mg/kg/injection, schedule: Q01DX001 (ip), vehicle: saline

Measured: T/C

O=[N+]([O-])c1cc2c(cc1/C=N/N=C1c3ccccc3-c3ccccc31)OCO2
inactive: [1] 94 % of control | dose: 150.0 mg/kg/injection, schedule: Q01DX001 (ip), vehicle: other 92 % of control

CC(=O)c1scc2c1CCCC2
inactive: dose: 25.0 mg/kg/injection, schedule: Q01DX001 (ip), vehicle: saline with Tween-80 94 % of control | dose: 50.0 mg/kg/injection, schedule: Q01DX001 (ip), vehicle: saline with Tween-80 96 % of control | [2] 96 % of control

NC(=O)NC(=O)NC(N)=O
inactive: [3] 94 % of control | [4] 102 % of control | dose: 400.0 mg/kg/injection, schedule: Q04DX002 (ip), vehicle: Klucel (hydroxypropylcellulose) (HPC) 102 % of control

COc1ccc([N+](=O)[O-])cc1NC(=O)Cc1ccccc1
inactive: [5] 107 % of control | [6] 101 % of control | [7] 91 % of control

COc1cc(CNC(=O)CCN2CC2)ccc1O
inactive: dose: 50.0 mg/kg/injection, schedule: Q04DX003 (ip), vehicle: Klucel (hydroxypropylcellulose) (HPC) 109 % of control | [8] 98 % of control | [9] 95 % of control | [10] 97 % of control

Cc1ncc2c[n+]([O-])ccn12
inactive: [11] 97 % of control | [12] 98 % of control

NNc1cnc2ccccc2n1
inactive: dose: 100.0 mg/kg/injection, schedule: Q01DX009 (ip), vehicle: saline sonified 90 % of control | [13] 101 % of control | [14] 97 % of control | [15] 113 % of control

CC(=O)OCC(=O)C12OC1CC1C3CCC4CC(O)CCC4(C)C3CC(=O)C12C (stereo not drawn)
inactive: dose: 6.0 mg/kg/injection, schedule: Q04DX002 (ip), vehicle: other 91 % of control | dose: 12.5 mg/kg/injection, schedule: Q04DX002 (ip), vehicle: other 106 % of control | dose: 25.0 mg/kg/injection, schedule: Q04DX002 (ip), vehicle: other 98 % of control | dose: 50.0 mg/kg/injection, schedule: Q04DX002 (ip), vehicle: other 98 % of control

CCOP(=O)(OCC)O/N=C(/c1ccccc1)C(C)C
inactive: dose: 5.0 mg/kg/injection, schedule: Q01DX001 (ip), vehicle: saline 98 % of control | [16] 98 % of control | dose: 20.0 mg/kg/injection, schedule: Q01DX001 (ip), vehicle: saline 93 % of control | [17] 100 % of control

CN/N=C\c1cc2ccccc2c2ccccc12
inactive: dose: 50.0 mg/kg/injection, schedule: Q01DX001 (ip), vehicle: alcohol 89 % of control | dose: 100.0 mg/kg/injection, schedule: Q01DX001 (ip), vehicle: alcohol 89 % of control | dose: 200.0 mg/kg/injection, schedule: Q01DX001 (ip), vehicle: alcohol 100 % of control | dose: 400.0 mg/kg/injection, schedule: Q01DX001 (ip), vehicle: alcohol 89 % of control

CC(=O)Nc1ncnc2c1c(C(N)=O)cn2C1OC(COC(C)=O)C(OC(C)=O)C1OC(C)=O (stereo not drawn)
inactive: dose: 100.0 mg/kg/injection, schedule: Q01DX001 (ip), vehicle: water 102 % of control

NNC(=O)CNc1cccc(Br)c1
inactive: dose: 50.0 mg/kg/injection, schedule: Q04DX002 (ip), vehicle: Klucel (hydroxypropylcellulose) (HPC) 101 % of control and 92 % of control | [3] 114 % of control and 120 % of control | [4] 108 % of control

O=C(COc1ccc(Cl)cc1)Nc1ccc(Cl)cc1C(=O)c1ccccc1
inactive: dose: 50.0 mg/kg/injection, schedule: Q01DX009 (ip), vehicle: other 106 % of control | dose: 100.0 mg/kg/injection, schedule: Q01DX009 (ip), vehicle: other 102 % of control | dose: 200.0 mg/kg/injection, schedule: Q01DX009 (ip), vehicle: other 96 % of control and 87 % of control | dose: 400.0 mg/kg/injection, schedule: Q01DX009 (ip), vehicle: other 89 % of control

O=C1CC(c2ccccc2)C(c2ccccc2)C(=O)N1 (stereo not drawn)
inactive: [18] 90 % of control | [19] 90 % of control

O=S1(=O)C2CCCC1CCC2
inactive: [16] 98 % of control and 109 % of control | [17] 102 % of control | [18] 109 % of control | [19] 100 % of control | dose: 300.0 mg/kg/injection, schedule: Q01DX001 (ip), vehicle: saline 104 % of control

Cc1cc(Br)ccc1OCC(=O)O
inactive: [8] 96 % of control | [9] 93 % of control | [10] 98 % of control

O=C1C(=O)c2ccccc2C=C1[N+](=O)[O-]
inactive: dose: 5.0 mg/kg/injection, schedule: Q01DX009 (ip), vehicle: saline 92 % of control | dose: 5.0 mg/kg/injection, schedule: Q04DX003 (ip), vehicle: saline 108 % of control | dose: 10.0 mg/kg/injection, schedule: Q01DX009 (ip), vehicle: saline 101 % of control | dose: 10.0 mg/kg/injection, schedule: Q04DX003 (ip), vehicle: saline 96 % of control | dose: 20.0 mg/kg/injection, schedule: Q01DX009 (ip), vehicle: saline 99 % of control | dose: 20.0 mg/kg/injection, schedule: Q04DX003 (ip), vehicle: saline 93 % of control

CC(C)(C)CNC(=S)Nc1ccccc1
inactive: dose: 9.5 mg/kg/injection, schedule: Q01DX001 (ip), vehicle: other 98 % of control | dose: 19.0 mg/kg/injection, schedule: Q01DX001 (ip), vehicle: other 102 % of control | dose: 38.0 mg/kg/injection, schedule: Q01DX001 (ip), vehicle: other 104 % of control | [1] 90 % of control

CC(C)(C)C1CCCC(=O)CC1 (stereo not drawn)
inactive: [20] 102 % of control

O=C(O)c1cc(C(=O)Nc2cccc3ccccc23)c(C(=O)O)cc1C(=O)Nc1cccc2ccccc12
inactive: [5] 96 % of control and 87 % of control | dose: 100.0 mg/kg/injection, schedule: Q04DX002 (ip), vehicle: saline with Tween-80 104 % of control and 116 % of control | [13] 100 % of control | [6] 97 % of control and 91 % of control | dose: 200.0 mg/kg/injection, schedule: Q04DX002 (ip), vehicle: saline with Tween-80 94 % of control and 103 % of control | [14] 105 % of control | [7] 100 % of control and 92 % of control | dose: 400.0 mg/kg/injection, schedule: Q04DX002 (ip), vehicle: saline with Tween-80 93 % of control and 89 % of control | [15] 98 % of control

CCCCCCCCCC(C)CCCCCCC (stereo not drawn)
inactive: [2] 103 % of control | dose: 200.0 mg/kg/injection, schedule: Q01DX001 (ip), vehicle: saline with Tween-80 97 % of control | dose: 400.0 mg/kg/injection, schedule: Q01DX001 (ip), vehicle: saline with Tween-80 100 % of control

c1ccc(-c2csc3[n+]2CCN3)cc1
inactive: [20] 99 % of control

Cc1ccc(S(=O)(=O)NC(CCC(=O)O)C(=O)O)cc1 (stereo not drawn)
inactive: dose: 100.0 mg/kg/injection, schedule: Q01DX001 (ip), vehicle: saline 91 % of control | dose: 100.0 mg/kg/injection, schedule: Q01DX009 (ip), vehicle: saline 93 % of control | [11] 108 % of control | dose: 200.0 mg/kg/injection, schedule: Q01DX001 (ip), vehicle: saline 102 % of control | dose: 200.0 mg/kg/injection, schedule: Q01DX009 (ip), vehicle: saline 100 % of control | [12] 103 % of control | dose: 400.0 mg/kg/injection, schedule: Q01DX009 (ip), vehicle: saline 88 % of control | dose: 400.0 mg/kg/injection, schedule: Q04DX003 (ip), vehicle: saline 106 % of control
